Reference: patent US20200216493A1, “ANTIMICROBIAL PEPTIDES” (FERRING B.V., priority 2016, published 2020)

How the values were obtained:
S. aureus (14 isolates) = assay type: cell-based, Staphylococcus aureus; details: 20 h
Protocol: (§1) The broth microdilution susceptibility assay followed the procedure described by the Clinical and Laboratory Standards Institute (CLSI) in CLSI document M7-A10.
(§2) The following bacteria isolates were tested:
(§3) S.aureus, S.epidermidis, E.faecalis, and E.faecium colonies were grown on TSA (Tryptone Soya Agar; cat.N. P05012A -OXOID) S.pneumoniae and S.pyogenes colonies were grown on TSASB ((TSA) Agar +5% Sheep Blood; cat.N. PB5012A -OXOID). An inoculum was prepared by making a direct saline suspension of isolated colonies selected from an 18 to 24 hours agar plate incubated at 35±2 ° C. in ambient air. The suspension was adjusted to achieve a turbidity equivalent to a 0.5 McFarland turbidity standard (1 to 2 ×10^8 Colony Forming Units (CFU)) and diluted 200 fold within 15 minutes in broth. (S.aureus, S.epidermidis, E.faecalis, and E.faecium were diluted in CAMHB: Mueller Hinton Broth 2, Cation-Adjusted (cat. N. 90922 Fluka); S.pneumoniae and S.pyogenes were diluted in CAMHB +2.5% lysed horse blood. All broth contained 0.002% polysorbate 80.
(§4) 96-well plates were prepared containing 1 μL of the test compound (at 100× desired test concentration in 100% DMSO); compounds were tested at 8 final concentrations, i.e. 16 μg/mL, 8 μg/mL, 4 μg/mL, 2 μg/mL, 1 μg/mL, 0.5 μg/mL, 0.25 μg/mL, and 0.125 μg/mL. 100 μL of the broth dilution was dispensed in each well plate to have a final bacterial concentration in plate of ˜5×10^5 CFU/mL. The plates were incubated at 35±2° C. in ambient air for 20 hours.

[1] = tested on: S. epidermidis (5 isolates); assay type: cell-based, Staphylococcus epidermidis; details: 20 h
Protocol: as §1, §2, §3, §4

[2] = tested on: S. pneumoniae (8 isolates); assay type: cell-based, Streptococcus pneumonia; details: 20 h
Protocol: as §1, §2, §3, §4

S. pyogenes (2 isolates) = assay type: cell-based, Streptococcus pyogenes; details: 20 h
Protocol: as §1, §2, §3, §4

E. faecalis (5 isolates) = assay type: cell-based, Enterococcus faecalis; details: 20 h
Protocol: as §1, §2, §3, §4

E. faecium (3 isolates) = assay type: cell-based, Enterococcus faecium; details: 20 h
Protocol: as §1, §2, §3, §4

in vitro = assay type: cell-based; details: human, HepG2 cells
Protocol: Compounds were tested for cytotoxicity to a mammalian cell line HepG2 (Human hepatocyte carcinoma from ECACC (85011430)). Hep G2 cells were seeded into 96-well plates, 7500 cells/well in 100 μl medium (Minimum Essential Medium (Gibco 21090) supplemented with 2 mM L-Glutamine, 1% non-essential amino acids and 10% fetal bovine serum) and incubated for 20 hours at 37° C., 5% CO2. 100 μL of fresh medium containing a test compound or DMSO (for control) at 2× final concentration were added and incubated for 48 hours at 37° C., 5% CO2. The final concentration of DMSO in plate was 1%. At the end of this incubation, 20 μl MTT (Thiazolyl Blue Tetrazolium Bromide) solution 5 mg/ml in H2O (0.5 mg/ml final in well) was added to all wells. Cells were incubated with MTT for 4 hours at 37° C., 5% CO2. After incubation, medium containing MTT was removed; 200 μl of DMSO was added in each well and plates were put on a shaker for 5 minutes. Absorbance was read on a SpectraMax plate reader at 570 nm. Specific absorbance (Specific A570) was calculated by subtracting the mean absorbance values of the blank wells (no HepG2 cells) from each well. Control values were determined from wells containing cells and treated with medium+1% DMSO only (no test compound). % viability was calculated as:
(Specific A570test compound/Specific A570control)×100.

Compound: CC[C@H](C)[C@H](NC(=O)[C@@H](Cc1ccccc1)NC)C(=O)N[C@@H](Cc1cccc2ccccc12)C(=O)N[C@H](CCC(N)=O)C(=O)N[C@@H](C(=O)N[C@H](C(=O)N[C@@H](CO)C(=O)N[C@H]1C(=O)N[C@@H](C)C(=O)N[C@@H](CCCCNC(=N)N)C(=O)N[C@@H]([C@@H](C)CC)C(=O)O[C@H]1C)[C@@H](C)CC)[C@@H](C)CC [Compound 73, H-D-MePhe-Ile-lNal-D-Gln-D-aIle-Ile-Ser-c(D-Thr-Ala-Har-Ile)]
- S. Aureus (14) MIC90 (S. aureus (14 isolates)): 0.5 µg/mL
- S. epidermidis (MIC90) (5) [1]: 0.25 µg/mL
- S. pneumoniae (8) MIC90 [2]: ≤0.12 µg/mL
- S. pyogenes (2) MIC90 (S. pyogenes (2 isolates)): ≤0.12 µg/mL
- E. faecalis (5) MIC90 (E. faecalis (5 isolates)): 0.5 µg/mL
- E. faecium (3) MIC90 (E. faecium (3 isolates)): 0.25 µg/mL
- viability at 48 h, 100 µM (in vitro): 113%

Compound: CC[C@H](C)[C@H](NC(=O)[C@@H](Cc1ccccc1)NC)C(=O)N[C@@H](CO)C(=O)N[C@H](CCC(N)=O)C(=O)N[C@@H](C(=O)N[C@H](C(=O)N[C@@H](CO)C(=O)N[C@H]1C(=O)N[C@@H](C)C(=O)N[C@@H](CCCNC(=N)N)C(=O)N[C@@H]([C@@H](C)CC)C(=O)O[C@H]1C)[C@@H](C)CC)[C@@H](C)CC [[Arg10]teixobactin, reference compound]
- S. Aureus (14) MIC90 (S. aureus (14 isolates)): 0.5 µg/mL
- S. epidermidis (MIC90) (5) [1]: 0.5 µg/mL
- S. pneumoniae (8) MIC90 [2]: 0.25 µg/mL
- S. pyogenes (2) MIC90 (S. pyogenes (2 isolates)): 0.25 µg/mL
- E. faecalis (5) MIC90 (E. faecalis (5 isolates)): 2 µg/mL
- E. faecium (3) MIC90 (E. faecium (3 isolates)): 2 µg/mL
- viability at 48 h, 100 µM (in vitro): 115%

Compound: CC[C@H](C)[C@H](NC(=O)[C@@H](Cc1ccccc1)NC)C(=O)N[C@@H](CO)C(=O)N[C@H](CCC(N)=O)C(=O)N[C@@H](C(=O)N[C@H](C(=O)N[C@@H](CO)C(=O)N[C@H]1C(=O)N[C@@H](C)C(=O)N[C@@H](CCCCN)C(=O)N[C@@H]([C@@H](C)CC)C(=O)O[C@H]1C)[C@@H](C)CC)[C@@H](C)CC [[Lys10]teixobactin, reference compound]
- S. Aureus (14) MIC90 (S. aureus (14 isolates)): 0.5 µg/mL
- S. epidermidis (MIC90) (5) [1]: 0.5 µg/mL
- S. pneumoniae (8) MIC90 [2]: ≤0.12 µg/mL
- S. pyogenes (2) MIC90 (S. pyogenes (2 isolates)): 0.25 µg/mL
- E. faecalis (5) MIC90 (E. faecalis (5 isolates)): 2 µg/mL
- E. faecium (3) MIC90 (E. faecium (3 isolates)): 1 µg/mL
- viability at 48 h, 100 µM (in vitro): 95.6%
